# Reference: article PMC7487730, “Design, synthesis and biological evaluation of novel benzodioxole derivatives as COX inhibitors and cytotoxic agents” (BMC Chemistry, 2020)
# Like-named read-outs stand apart in the source and are kept apart here.
# Assays:
# ovine COX1 = molecular target: T1, ovine COX1 (Ovis aries, UniProt P05979); experiment: COX inhibitor screening assay kit (Cayman No. 560131), COX1; format: biochemical
# T1 construct: purchased Cayman Chemical 560131 (kit)
# T1 sequence (P05979 25-600): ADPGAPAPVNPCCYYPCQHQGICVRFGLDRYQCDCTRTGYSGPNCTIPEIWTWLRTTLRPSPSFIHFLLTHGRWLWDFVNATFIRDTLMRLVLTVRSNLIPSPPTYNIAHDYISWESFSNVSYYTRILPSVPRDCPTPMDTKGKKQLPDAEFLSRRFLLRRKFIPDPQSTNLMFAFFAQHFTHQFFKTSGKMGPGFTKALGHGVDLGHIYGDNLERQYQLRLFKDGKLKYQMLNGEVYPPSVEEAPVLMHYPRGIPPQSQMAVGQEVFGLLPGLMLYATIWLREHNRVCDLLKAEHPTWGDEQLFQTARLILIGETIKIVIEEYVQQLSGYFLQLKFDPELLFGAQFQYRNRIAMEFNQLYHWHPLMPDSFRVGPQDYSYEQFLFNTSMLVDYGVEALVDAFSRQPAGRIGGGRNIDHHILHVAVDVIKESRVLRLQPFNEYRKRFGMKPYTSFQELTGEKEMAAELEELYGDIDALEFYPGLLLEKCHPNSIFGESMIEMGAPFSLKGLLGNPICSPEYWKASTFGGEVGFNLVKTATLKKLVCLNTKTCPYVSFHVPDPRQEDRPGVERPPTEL
# Experimental: All chemicals were purchased from Sigma-Aldrich and Alfa Aesar. Melting points were determined with an SMP-II Digital Melting Point Apparatus and are uncorrected. IR spectra were obtained using a Perkin Elmer Spectrum 400 FTIR/FTNIR spectrometer. ^1H-NMR and ^13C-NMR spectra were recorded in DMSO-d6 and were performed on two NMR instruments. […] The second was a Bruker 300 MHz-Avance III High-Performance Digital FT-NMR spectrometer at the NMR facility at the Doping and Narcotics Analysis Laboratory of the faculty of pharmacy, Anadolu University, Turkey (it was used for both ^1H-NMR and ^13C-NMR for the other compounds). Tetramethylsilane was used as the internal standard. All chemical shifts were recorded as d (ppm). […] HeLa Cervical Carcinoma cell line was purchased from ATCC (ATCC® CCL-2™), and the cyototoxicty test of the cell viability was assessed by the CellTilter 96® Aqueous One Solution Cell Proliferation (MTS) assay according to the manufacturer’s instructions (Promega Corporation, Madison, WI) (Additional file 1).
# The assay was run in duplicate with three concentrations (50, 20, and 5 µM). […] The percentage inhibition of the three concentrations was used to calculate the IC50 [16].
# human recombinant COX2 = molecular target: T2, human recombinant COX2 (Homo sapiens, UniProt P35354); experiment: COX inhibitor screening assay kit (Cayman No. 560131), COX2; format: biochemical; settings: for COX1/COX2 Ratio Selectivity: ratio of IC50 COX1 to IC50 COX2; for IC50: run in duplicate with three concentrations (50, 20, and 5 µM)
# T2 construct: purchased Cayman Chemical 560131 (kit)
# T2 sequence (P35354 18-604): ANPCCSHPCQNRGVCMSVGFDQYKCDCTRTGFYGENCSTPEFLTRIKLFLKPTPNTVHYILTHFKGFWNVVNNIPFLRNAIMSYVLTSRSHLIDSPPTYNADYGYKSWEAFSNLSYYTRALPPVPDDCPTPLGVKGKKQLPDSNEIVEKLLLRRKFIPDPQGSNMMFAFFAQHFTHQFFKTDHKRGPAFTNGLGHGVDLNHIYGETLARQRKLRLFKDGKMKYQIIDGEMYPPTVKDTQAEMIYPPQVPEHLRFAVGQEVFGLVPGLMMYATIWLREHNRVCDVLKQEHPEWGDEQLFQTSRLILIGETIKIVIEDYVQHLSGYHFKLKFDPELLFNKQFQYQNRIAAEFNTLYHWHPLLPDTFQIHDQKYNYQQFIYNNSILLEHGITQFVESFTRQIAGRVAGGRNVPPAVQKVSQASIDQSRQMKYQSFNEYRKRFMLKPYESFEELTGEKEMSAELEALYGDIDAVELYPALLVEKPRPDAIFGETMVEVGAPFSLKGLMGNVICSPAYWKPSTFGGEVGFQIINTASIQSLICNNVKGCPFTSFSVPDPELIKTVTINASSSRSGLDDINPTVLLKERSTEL
# [1] = MTS cytotoxicity assay on HeLa cells; format: cell-based; settings: human
# Experimental: An MTS assay was used to determine the cytotoxic effect of Benzodioxole derivatives on HeLa (cervical carcinoma cells).
# All chemicals were purchased from Sigma-Aldrich and Alfa Aesar. Melting points were determined with an SMP-II Digital Melting Point Apparatus and are uncorrected. IR spectra were obtained using a Perkin Elmer Spectrum 400 FTIR/FTNIR spectrometer. ^1H-NMR and ^13C-NMR spectra were recorded in DMSO-d6 and were performed on two NMR instruments. The first was a Bruker 500 MHz-Avance III High-Performance Digital FT-NMR spectrometer at the Faculty of Science, Department of Chemistry, The University of Jordan, Jordan (it was used for the ^1H-NMR of just one compound, 3e). The second was a Bruker 300 MHz-Avance III High-Performance Digital FT-NMR spectrometer at the NMR facility at the Doping and Narcotics Analysis Laboratory of the faculty of pharmacy, Anadolu University, Turkey (it was used for both ^1H-NMR and ^13C-NMR for the other compounds). Tetramethylsilane was used as the internal standard. All chemical shifts were recorded as d (ppm). […] The yellow product of this enzymatic reaction was determined using a UV spectrophotometer with a Microplate Reader (BioRad, Japan) at a wavelength of 415 nm. HeLa Cervical Carcinoma cell line was purchased from ATCC (ATCC® CCL-2™), and the cyototoxicty test of the cell viability was assessed by the CellTilter 96® Aqueous One Solution Cell Proliferation (MTS) assay according to the manufacturer’s instructions (Promega Corporation, Madison, WI) (Additional file 1).
# HeLa Cervical Carcinoma was cultured in RPMI-1640 media and supplemented with 10% fetal bovine serum, 1% penicillin/streptomycin antibiotics and 1% L-glutamine. Cells were grown in a humidified atmosphere with 5% CO2 at 37 °C, and they were seeded in 2.6 × 10^4 cells/well in a 96-well plate. After 48 h, the cells were confluent, the media was changed, and cells were incubated with four concentrations (2, 1, 0.5, and 0.2 mM) of the tested compounds for 24 h. Cell viability was assessed by the CellTilter 96® Aqueous One Solution Cell Proliferation (MTS) Assay according to the manufacturer’s instructions (Promega Corporation, Madison, WI). Briefly, at the end of the treatment, 20 μL of MTS solution per 100 μL of media was added to each well and incubated at 37 °C for 2 h. Absorbance was measured at 490 nm.
# [2] = run in duplicate with three concentrations (50, 20, and 5 µM), read-out: The IC50 in µM of COX1
# [3] = HeLa cervical carcinoma cells (ATCC CCL-2), HeLa, 24 h incubation, MTS, read-out: HeLa Cell CC50 in milli-molar
Structure (SMILES),IC50 (ovine COX1; [2]) [µM],COX1/COX2 Ratio Selectivity (human recombinant COX2),IC50 (human recombinant COX2) [µM],"CC50 at 24 h [1, 3] [µM]",melting point [°C],"IC50 (ovine COX1; The IC50 in µM of COX1, run in duplicate with three concentrations (50, 20, and 5 µM)) [µM]",CC50 at 24 h [1] [µM]
"COC(=O)Cc1cc2c(cc1C(=O)c1ccccc1I)OCO2 [3b, Methyl 2-(6-(2-iodobenzoyl)benzo[d][1,3]dioxol-5-yl)acetate]",1.12,0.862,1.3,228,,,
"O=C(O)Cc1cc2c(cc1C(=O)c1ccccc1I)OCO2 [4b, 2-(6-(2-iodobenzoyl)benzo[d][1,3]dioxol-5-yl)acetic acid]",7.67,0.250,30.7,697,147 to 149,,
"O=C(O)Cc1cc2c(cc1C(=O)c1ccccc1Br)OCO2 [4d, 2-(6-(2-bromobenzoyl)benzo[d][1,3]dioxol-5-yl)acetic acid]",4.25,1.809,2.35,547,145 to 147,,
"COC(=O)Cc1cc2c(cc1C(=O)c1ccc(I)cc1)OCO2 [3c, Methyl 2-(6-(4-iodobenzoyl)benzo[d][1,3]dioxol-5-yl)acetate]",27.1,0.723,37.5,1790,119 to 121,,
"COC(=O)Cc1cc2c(cc1C(=O)c1ccc(Cl)cc1Cl)OCO2 [3f, Methyl 2-(6-(2,4-dichlorobenzoyl)benzo[d][1, 3]dioxol-5-yl)acetate]",,,,,95 to 97,,
"CC(C(=O)O)c1cccc(C(=O)c2ccccc2)c1 (stereo not drawn) [Ketoprofen, reference compound]",,,,,,0.031,
"COC(=O)Cc1cc2c(cc1C(=O)c1ccccc1)OCO2 [3a, Methyl 2-(6-benzoylbenzo[d][1,3]dioxol-5-yl)acetate]",12.3,0.859,14.3,1490,,,
"COC(=O)Cc1cc2c(cc1C(=O)c1cccc(Br)c1)OCO2 [3e, Methyl 2-(6-(3-bromobenzoyl)benzo[d][1, 3]dioxol-5-yl)acetate]",2.36,0.864,2.73,,72.5 to 74.5,,219
"O=C(O)Cc1cc2c(cc1C(=O)c1ccccc1)OCO2 [4a, 2-(6-benzoylbenzo[d][1,3]dioxol-5-yl)acetic acid]",1.45,0.434,3.34,1940,184.5 to 186.5,,
"O=C(O)Cc1cc2c(cc1C(=O)c1cccc(Br)c1)OCO2 [4e, 2-(6-(3-bromobenzoyl)benzo[d][1, 3]dioxol-5-yl)acetic acid]",7.11,0.144,49.3,437,154 to 156,,
"COC(=O)Cc1cc2c(cc1C(=O)c1ccccc1Br)OCO2 [3d, Methyl 2-(6-(2-bromobenzoyl)benzo[d][1,3]dioxol-5-yl)acetate]",,0.897,1.45,1610,85 to 87,,
"O=C(O)Cc1cc2c(cc1C(=O)c1ccc(I)cc1)OCO2 [4c, 2-(6-(4-iodobenzoyl)benzo[d][1,3]dioxol-5-yl)acetic acid]",33.7,0.861,39.1,1050,239.5 to 241.5,,
"O=C(O)Cc1cc2c(cc1C(=O)c1ccc(Cl)cc1Cl)OCO2 [4f, 2-(6-(2,4-dichlorobenzoyl)benzo[d][1,3]dioxol-5-yl)acetic acid]",0.725,0.169,4.29,1020,168.5 to 170,,
